{
  "source": "patent US8148431B2",
  "about": "“Osteogenesis promoter containing β-cryptoxanthin as the active ingredient” (Kemin Health, L.C., priority 2002, dated 2012)",
  "molecules": {"B1": {"name": "Parathyroid hormone: peptide hormone secreted from the accessory thyroid, causes bone mineral dissolution (bone resorption); “Parathormone” of Sigma (peptide, UniProt P01270 32-115, looked up)", "Parathyroid hormone": "SVSEIQLMHNLGKHLNSMERVEWLRKKLQDVHNFVALGAPLAPRDAGSQRPRKKEDNVLVESHEKSLGEADKADVNVLTKAKSQ", "modifications": "Parathyroid hormone", "notes": "peptide hormone secreted from the accessory thyroid, causes bone mineral dissolution (bone resorption); “Parathormone” of Sigma"}},
  "type_in_all_cases": "cell-based, Wistar male rats",
  "key": {"[1]": {"system": "diaphysis tissue of the femur (cortical bone)", "experiment": "Bone calcium level in cultured femoral diaphysis tissue pieces", "conditions": "diaphysis tissue; for Bone calcium level: mean ± SE; for Significant effect on increasing calcium level in the bone tissue (in words): Table 3 concentrations", "description": "(§1) The femurs were extracted from rats (Wistar male rats; 4 to 5 weeks old) (purchased from Japan SLC Co., Ltd. and fed with solid Oriental yeast (MF)) under anesthesia with ether under a germfree condition. The femurs were each washed with 0.25 M sucrose solution, and then divided into the diaphysis (cortical bone) and metaphysis (cancellous bone). The bone tissue pieces were cultured in a culture medium (Dulbecco's modified culture medium containing 5% of glucose; serum-free medium) containing. β-cryptoxanthin, etc. at […] in an incubator filled with 5% CO2-95% air for 48 hours. β-cryptoxanthin used was “β-cryptoxanthin” of Extrasynthase Co., cycloheximide used was “Cycloheximide” of Sigma Co. Ltd., β-carotene was “β-carotene” of Sigma ? , xanthine was “Xanthine” of Sigma Co, Ltd., parathormone was “Parathormone” of Sigma Co. Ltd. and prostaglandin E2 was “Prostaglandin E2” of Sigma Co. Ltd. In the control, only the culture medium was used without β-cryptoxanthin or the like.\n(§2) Bone calcium level in the bone tissue was determined. After the culture in the incubator, the tissue pieces were washed with 0.25 M sucrose solution and dried and then the bone was weighed. Then concentrated nitric acid was added to the tissue pieces. After the incineration at 120° C. for 12 hours, the bone calcium level was determined with an atomic absorption photometer (“Perkin-Elmer 303” of Perkin-Elmer Co.).\n(§3) The bone component-increasing effect of β-cryptoxanthin was examined. The diaphysis and metaphysis tissue of the femur was cultured in the above-described culture medium containing β-cryptoxanthin (10^−5 to 10^−5 M) for 48 hours. Calcium level in the bone tissue, alkaline phosphatase activity (enzyme for accelerating the bone calcification) and the amount of deoxyribonucleic acid (DNA; index of number of cells in the bone tissue) were determined by the same methods as in Example 1. In each test group, the determination vas conducted 6 to 8 times and the results were represented by the average value and the standard error. The significant difference was determined by Student's t-test. The result was compared with that of the control. When P value was not higher than 0.01 (**) or not higher than 0.05 (*), the results were statistically significant."}, "[2]": {"system": "metaphysis tissue of the femur (cancellous bone)", "experiment": "Bone calcium level in cultured femoral metaphysis tissue pieces", "conditions": "metaphysis tissue; for Bone calcium level: mean ± SE; for Significant effect on increasing calcium level in the bone tissue (in words): Table 3 concentrations", "description": "as §1, §2\nas §3, with “The diaphysis and metaphysis tissue of the femur was cultured in the above-described culture medium containing β-cryptoxanthin (10^−5 to 10^−5 M) for 48 hours.” left out"}, "[3]": {"system": "diaphysis tissue of the femur (cortical bone)", "experiment": "Bone alkaline phosphatase activity in cultured femoral diaphysis tissue pieces", "conditions": "Table 2 (protein synthesis inhibitor experiment), diaphysis tissue, 10^−6 M (each agent), mean ± SE, n=6", "description": "as §1\n(§4) The expression level of alkaline phosphatase, which is the most important enzyme for the acceleration of the calcification of bones, was examined. The tissue pieces cultured in the incubator were washed in 0.25 M sucrose solution, then pulverized in 3 ml of 65 mM barbital buffer (pH 7-4) and treated with ultrasonic waves. The resultant liquid was centrifuged. The supernatant, as the enzyme solution, was determined by a method of Walter ad Schutt in Method of Enzymatic Analysis, Vol. 1-2, p. 856, Academic Press, New York, 1965). Namely, this method was carried out as follows: p-nitrophenylphosphoric acid was used as the substrate. 0.05 ml of the enzyme solution was added to 2 ml of diethanolamine buffer (pH 9.8). After the incubation at 37° C. for 30 minutes, 10 ml of 0.05 N NaOH was added to the mixture. The absorbance (405 nm) was determined with a spectrophotometer to determine bone alkaline phosphatase activity of a bone remedy or a compound known to be effective for the bones.\nas §3"}, "[4]": {"system": "metaphysis tissue of the femur (cancellous bone)", "experiment": "Bone alkaline phosphatase activity in cultured femoral metaphysis tissue pieces", "conditions": "Table 2 (protein synthesis inhibitor experiment), metaphysis tissue, 10^−6 M (each agent), mean ± SE, n=6", "description": "as §1, §4, §3"}, "[5]": {"system": "diaphysis tissue of the femur (cortical bone)", "experiment": "Bone DNA level in cultured femoral diaphysis tissue pieces", "conditions": "Table 2 (protein synthesis inhibitor experiment), diaphysis tissue, 10^−6 M (each agent), mean ± SE, n=6", "description": "as §1\n(§5) DNA level was determined as an index of the number of cells in the bone tissue. After the culture in an incubator, the tissue pieces were washed with 0.25 M sucrose solution and then the wet weight of them was determined. They were pulverized in 4 ml of 0.1 N NaOH. After the osmosis at 4° C. for 24 hours, the liquid mixture was centrifuged. The supernatant was taken as the sample and determined by a method of Ceriotti et al. (J. Biol. Chem., 241; 34-77, 1951). Namely, 1 ml of concentrated hydrochloric acid and 1 ml of 0.04% indole solution were added to 2 ml of the sample and then the resultant mixture was heated to 100° C. in boiling water. After quenching followed by the extraction with 4 ml of chloroform, the chloroform layer was taken to determine bone DNA level with a spectrophotometer (490 nm).\nas §3"}, "[6]": {"system": "metaphysis tissue of the femur (cancellous bone)", "experiment": "Bone DNA level in cultured femoral metaphysis tissue pieces", "conditions": "Table 2 (protein synthesis inhibitor experiment), metaphysis tissue, 10^−6 M (each agent), mean ± SE, n=6", "description": "as §1, §5, §3"}, "[7]": {"system": "diaphysis tissue of the femur", "experiment": "Bone resorption (PTH or prostaglandin E2): bone calcium level in cultured diaphysis tissue", "description": "as §1, §2\n(§6) The bone mineral dissolution-inhibiting effect of β-cryptoxanthin was examined. […] PTH also has a pathophysiologic role on the expression of osteoporosis caused by the aging. It is known that prostaglandin E2 also causes physiologic bone mineral dissolution. The diaphysis or metaphysis tissue of the femur was cultured in the presence of 10^−7 M PTH or 10^−5 M prostaglandin E2 for 48 hours and then calcium level in the bone tissue was determined. In another experiment, the culture was conducted in the same manner as that described above in the coexistence of them and β-cryptoxanthin (10^−8 M to 10^−6 M) and then calcium level in the bone tissue was determined. In each test group, the determination was conducted 6 to 8 times and the results were represented by the average value and the standard error. The significant difference was determined by Student's t-test. The result was compared with that of the control. When P value was not higher than 0.01 (*) as compared with the control or it is not higher than 0.1 (#) as compared with that of prostaglandin E2, the results were statistically significant."}, "[8]": {"system": "metaphysis tissue of the femur", "experiment": "Bone resorption (PTH or prostaglandin E2): bone calcium level in cultured metaphysis tissue", "description": "as §1, §2, §6"}, "[9]": {"conditions": "Comparative Example (Table 3), 10^−6 M, 48 h culture"}, "[10]": {"conditions": "Comparative Example (Table 3), 10^−7 M, 48 h culture"}, "[11]": {"conditions": "Table 2 (protein synthesis inhibitor experiment), 10^−6 M (each agent), n=6"}, "[12]": {"conditions": "10^−7 M PTH, 48 h culture, vs control"}},
  "note": "Marks after values point to notes of the source that are not given here.",
  "data": [
    {"molecule": "Oc1nc(O)c2[nH]cnc2n1", "note": "[Xanthine, 2,6-dihydroxypurine, reference compound]", "values": [
      {"measurement": "Bone calcium level", "setting": "[1]; [9]", "result": "240.2 ± 8.46", "unit": "mg/g dry weight"},
      {"measurement": "Bone calcium level", "setting": "[1]; [10]", "result": "228.6 ± 7.08", "unit": "mg/g dry weight"},
      {"measurement": "Significant effect on increasing calcium level in the bone tissue (in words)", "setting": "[1]; 48 h culture", "result": "could not be obtained"},
      {"measurement": "Bone calcium level", "setting": "[2]; [9]", "result": "188.2 ± 3.34", "unit": "mg/g dry weight"},
      {"measurement": "Bone calcium level", "setting": "[2]; [10]", "result": "189.8 ± 3.30", "unit": "mg/g dry weight"},
      {"measurement": "Significant effect on increasing calcium level in the bone tissue (in words)", "setting": "[2]; 48 h culture", "result": "could not be obtained"}
    ]},
    {"molecule": "CC1=C(/C=C/C(C)=C/C=C/C(C)=C/C=C/C=C(C)/C=C/C=C(C)/C=C/C2=C(C)CCCC2(C)C)C(C)(C)CCC1", "note": "[β-carotene, reference compound]", "values": [
      {"measurement": "Bone calcium level", "setting": "[1]; [9]", "result": "215.6 ± 2.78", "unit": "mg/g dry weight"},
      {"measurement": "Bone calcium level", "setting": "[1]; [10]", "result": "232.2 ± 6.66", "unit": "mg/g dry weight"},
      {"measurement": "Significant effect on increasing calcium level in the bone tissue (in words)", "setting": "[1]; 48 h culture", "result": "could not be obtained"},
      {"measurement": "Bone calcium level", "setting": "[2]; [9]", "result": "189.4 ± 8.06", "unit": "mg/g dry weight"},
      {"measurement": "Bone calcium level", "setting": "[2]; [10]", "result": "195.4 ± 10.10", "unit": "mg/g dry weight"},
      {"measurement": "Significant effect on increasing calcium level in the bone tissue (in words)", "setting": "[2]; 48 h culture", "result": "could not be obtained"}
    ]},
    {"molecule": "C[C@@H]1C[C@@H]([C@H](O)CC2CC(=O)NC(=O)C2)C(=O)[C@@H](C)C1", "note": "[Cycloheximide, reference compound]", "values": [
      {"measurement": "Bone calcium level", "setting": "[1]; [11]", "result": "204.0 ± 15.59", "unit": "mg/g dry weight"},
      {"measurement": "Bone calcium level", "setting": "[2]; [11]", "result": "156.4 ± 2.81", "unit": "mg/g dry weight"},
      {"measurement": "Bone alkaline phosphatase activity", "setting": "[3]", "result": "534.5 ± 64.2", "unit": "nmol/min/mg protein"},
      {"measurement": "Bone alkaline phosphatase activity", "setting": "[4]", "result": "948.8 ± 21.1", "unit": "nmol/min/mg protein"},
      {"measurement": "Bone DNA level", "setting": "[5]", "result": "1.299 ± 0.127", "unit": "mg/g bone wet weight"},
      {"measurement": "Bone DNA level", "setting": "[6]", "result": "3.001 ± 0.454", "unit": "mg/g bone wet weight"}
    ]},
    {"molecule": "CCCCC[C@H](O)/C=C/[C@H]1[C@H](O)CC(=O)[C@@H]1C/C=C\\CCCC(=O)O", "note": "[Prostaglandin E2, reference compound]", "values": [
      {"measurement": "Effect of prostaglandin E2 on calcium level in the bone tissue (in words)", "setting": "[7]; diaphysis tissue, prostaglandin E2 10^−5 M", "result": "significant reduction"},
      {"measurement": "Bone calcium level", "setting": "[7]; diaphysis tissue, prostaglandin E2 10^−5 M alone, 48 h culture", "result": "182.8 ± 4.06* mg/g dry weight"},
      {"measurement": "Effect of prostaglandin E2 on calcium level in the bone tissue (in words)", "setting": "[8]; metaphysis tissue, prostaglandin E2 10^−5 M", "result": "significant reduction"},
      {"measurement": "Bone calcium level", "setting": "[8]; metaphysis tissue, prostaglandin E2 10^−6 M alone, 48 h culture", "result": "163.5 ± 1.47* mg/g dry weight"}
    ]},
    {"molecule": "B1", "values": [
      {"measurement": "Effect of PTH on calcium level in the diaphysis tissue (in words)", "setting": "[7]; [12]", "result": "significantly reduced"},
      {"measurement": "Bone calcium level", "setting": "[7]; diaphysis tissue, parathyroid hormone 10^−7 M alone, 48 h culture", "result": "180.0 ± 3.23* mg/g dry weight"},
      {"measurement": "Effect of PTH on calcium level in the metaphysis tissue (in words)", "setting": "[8]; [12]", "result": "significantly reduced"},
      {"measurement": "Bone calcium level", "setting": "[8]; metaphysis tissue, parathyroid hormone 10^−7 M alone, 48 h culture", "result": "167.0 ± 0.96* mg/g dry weight"}
    ]}
  ]
}
